One compound from paper PMC6852045 (International Journal of Cosmetic Science, 2019) can be followed below.

pEC50: −log10 of the molar value.

In the assay the target is T1, peroxisome proliferator-activated receptor-α (PPARα) (Homo sapiens, UniProt Q07869).
T1 sequence (Q07869 196-468 limits assumed): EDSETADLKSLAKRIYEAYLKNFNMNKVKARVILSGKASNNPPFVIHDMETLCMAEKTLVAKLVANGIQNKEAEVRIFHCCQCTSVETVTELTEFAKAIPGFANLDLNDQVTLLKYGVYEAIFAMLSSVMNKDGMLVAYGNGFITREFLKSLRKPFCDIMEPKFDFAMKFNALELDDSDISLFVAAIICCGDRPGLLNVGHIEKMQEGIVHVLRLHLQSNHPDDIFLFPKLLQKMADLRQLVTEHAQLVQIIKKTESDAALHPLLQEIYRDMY
Put plainly: GAL4-PPARα LBD one-hybrid luciferase transactivation assay in HEK293 cells. The format is cell-based.

For `CCCCCCCC[C@@H](O)CCCCCCCCC(=O)O` [HSA, (R)‐10‐hydroxyoctadecanoic acid], the pEC50 is 5.26.
